The results in this text go back to patent US8288371B2, “Ortho pyrrolidine, benzyl-substituted heterocycle CCR1 antagonists for autoimmune diseases and inflammation” (Pharmacopeia, LLC, priority 2007, dated 2012).

This assay has as its target T1, human CCR1 (Homo sapiens, UniProt P32246).
T1 sequence (P32246 1-355): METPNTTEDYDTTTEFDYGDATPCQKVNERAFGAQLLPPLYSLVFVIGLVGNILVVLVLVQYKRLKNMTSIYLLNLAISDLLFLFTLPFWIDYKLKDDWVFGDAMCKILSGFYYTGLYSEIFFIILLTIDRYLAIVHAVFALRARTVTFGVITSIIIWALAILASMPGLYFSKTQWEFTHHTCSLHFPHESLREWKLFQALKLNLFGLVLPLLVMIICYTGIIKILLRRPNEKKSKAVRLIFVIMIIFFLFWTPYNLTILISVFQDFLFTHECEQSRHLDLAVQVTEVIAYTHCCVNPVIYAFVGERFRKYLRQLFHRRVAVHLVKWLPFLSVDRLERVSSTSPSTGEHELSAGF
Briefly: CCR1 binding protocol (SPA, [125I]-MIP-1α displacement). To be noted: cell membrane expressing human CCR1, 0.1 nM [125I]-MIP-1α, 4 hours at ambient temperature; read-out: Relative potency (IC50). In a few lines: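 Human CCR1 membranes (0.5 μg/well) on SPA beads were incubated with compound and 0.1 nM [125I]-MIP-1α (final) for 4 h at ambient temperature. Buffer was Tris pH 7.4 with NaCl, KCl, MnCl and 0.1% BSA. IC50 came from ½-log compound dilutions (10 mM top DMSO stock) by displacement of bound radioligand.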
Take `N#Cc1ccc2c(c1)OCC[C@H]2NC(=O)N1CCC[C@@H]1c1nnc(CO)n1Cc1ccc(Cl)cc1` [Compound 340]: the IC50 (usually the midpoint of a concentration-inhibition curve) is less than 50 nM.
For the compound `Cc1ccc(Cn2ccnc2[C@H]2CCCN2C(=O)Nc2ccc(C(F)(F)F)cc2)cc1` [Compound 46], the IC50 fell in the range of 500 to 5000 nM.
The same measure for `Cc1nnc([C@H]2CCCN2C(=O)NCC2(c3cccs3)CCOCC2)n1Cc1ccc(Cl)cc1` [Compound 623]: 500 to 5000 nM; for `C[C@H](NC(=O)N1CCC[C@@H]1c1nnc(CO)n1Cc1ccc(Cl)cc1)c1ccc(Cl)cc1` [Compound 402]: less than 50 nM.
The same measure for `Cc1cc(C)c(NC(=O)N2CCC[C@@H]2c2nnc(C)n2Cc2ccc(Cl)cc2)c(C)c1` [Compound 150]: less than 50 nM; for `CCC(CC)NC(=O)N1CCC[C@@H]1c1nnc(C)n1Cc1ccc(Cl)cc1` [Compound 183]: 50 to 500 nM.
In the case of `COC(=O)c1cc(NC(=O)N2CCC[C@@H]2c2nnc(C)n2Cc2ccc(Cl)cc2)c(C)cc1C` [Compound 318], the IC50 is less than 50 nM.
In the case of `Cc1nnc([C@H]2C[C@H](O)CN2C(=O)N[C@@H](C)c2ccc(Cl)cc2)n1Cc1ccc(Cl)cc1` [Compound 474] it was less than 50 nM; in that of `Cc1nnc([C@H]2CCCN2C(=O)Nc2ccc3nonc3c2)n1Cc1ccc(Cl)cc1` [Compound 321], 50 to 500 nM.
For the compound `O=C(NCc1ccc(Cl)cc1Cl)N1CCC[C@@H]1c1nnc(CO)n1Cc1ccc(Cl)cc1` [Compound 313], the half-maximal inhibitory concentration (IC50) was less than 50 nM.
For `N#C/N=C(\N[C@H]1CCCc2ccccc21)N1CCC[C@@H]1c1nnnn1Cc1ccc(Cl)cc1` [Compound 50], the IC50 is 500 to 5000 nM.
Take `O=C(Nc1ccc(Cl)cc1F)N1CCC[C@@H]1c1nnc(CO)n1Cc1ccc(Cl)cc1` [Compound 310]: the IC50 was in the range of 50 to 500 nM.
The same measure for `Cc1nnc([C@H]2CCCN2C(=O)Nc2ccc(S(C)(=O)=O)cc2Cl)n1Cc1ccc(Cl)cc1` [Compound 331]: 50 to 500 nM; for `Cc1nnc([C@H]2CCCN2C(=O)Nc2ccc(Br)cc2)n1Cc1ccc(Cl)cc1` [Compound 162]: 50 to 500 nM; for `Cc1nnc([C@H]2CCCN2C(=O)NC2(c3ccccc3F)CC2)n1Cc1ccc(Cl)cc1` [Compound 273]: less than 50 nM.
For the compound `Cc1cccc(C)c1NC(=O)N1CCC[C@@H]1c1nnc(C)n1Cc1ccc(Cl)cc1` [Compound 158], the concentration for half-maximal inhibition (IC50) lay in the range of 50 to 500 nM.
`Cc1nnc([C@H]2C[C@@H](O)CN2C(=O)NCc2ccc(C(F)(F)F)cc2)n1Cc1ccc(Cl)cc1` [Compound 439]: the IC50 was in the range of 50 to 500 nM.
With `Cc1onc(-c2ccccc2)c1N/C(=N/C#N)N1CCC[C@@H]1c1nnc(C)n1Cc1ccc(Cl)cc1` [Compound 222], the IC50 was 50 to 500 nM.
Take `CCc1nnc([C@H]2CCCN2C(=O)Nc2ccc(Cl)cc2F)n1Cc1ccc(Cl)cc1` [Compound 583]: the IC50 was less than 50 nM.
In the case of `CC[C@H](NC(=O)N1CCC[C@@H]1c1nnc(C)n1Cc1ccc(Cl)cc1)c1ccc(C)nc1C` [Compound 625] it was less than 50 nM; in that of `O=C(NCc1ccc(Cl)cc1Cl)N1CCC[C@@H]1c1nccn1Cc1ccc(Cl)cc1` [Compound 43], 50 to 500 nM.
`Cc1nnc([C@H]2CCCN2C(=O)NC2(c3ccc(F)cc3)CC2)n1Cc1ccc(Cl)cc1` [Compound 270]: the IC50 was less than 50 nM.
In the case of `Cc1cc(C(F)(F)F)ccc1NC(=O)N1CCC[C@@H]1c1nnc(C)n1Cc1ccc(Cl)cc1` [Compound 190] it was less than 50 nM.
For `COC(=O)c1ccc(Cl)c(NC(=O)N2CCC[C@@H]2c2nnc(C)n2Cc2ccc(Cl)cc2)c1` [Compound 286], the IC50 was less than 50 nM.
In the case of `Cc1nnc([C@H]2C[C@@H](O)CN2C(=O)Cc2cccc(C(F)(F)F)c2)n1Cc1ccc(Cl)cc1` [Compound 502], the IC50 lay in the range of 50 to 500 nM.
Consider `Cc1nnc([C@H]2CCCN2C(=O)Nc2ccc(Cl)c(F)c2)n1Cc1ccc(Cl)cc1` [Compound 408], for which the IC50 was in the range of 50 to 500 nM.
For the compound `CC[C@H](NC(=O)N1CCC[C@@H]1c1nnc(C)n1Cc1ccc(Cl)cc1)c1cc2ccccc2o1` [Compound 117], the half-inhibitory concentration (IC50) was less than 50 nM.
In the case of `Cc1nnc([C@H]2CCCN2C(=O)Nc2ccc(F)cc2F)n1Cc1ccc(Cl)cc1` [Compound 422], the IC50 lay within 50 to 500 nM.
The same measure for `Cc1nnc([C@H]2CCCN2C(=O)Nc2cncnc2)n1Cc1ccc(Cl)cc1` [Compound 250]: 500 to 5000 nM; for `O=C(Nc1ccc(C(F)(F)F)cc1)N1CCC[C@@H]1c1nncn1Cc1ccc(Cl)cc1` [Compound 108]: less than 50 nM; for `Cc1cc(Cl)cc(C)c1NC(=O)N1CCC[C@@H]1c1ncnn1Cc1ccc(Cl)cc1` [Compound 66]: 50 to 500 nM.
On to `O=C(Nc1ccc(Cl)cc1F)N1CCC[C@@H]1c1nnnn1Cc1ccc(Cl)cc1` [Compound 54], for which the IC50 fell in the range of 50 to 500 nM.
As for `Cc1nnc([C@H]2CCCN2C(=O)NC2CCCC2)n1Cc1ccc(Cl)cc1` [Compound 246], the concentration for half-maximal inhibition (IC50) lay in the range of 500 to 5000 nM.
The same measure for `Cc1nnc([C@H]2CCCN2C(=O)N[C@H](C)c2ccc(C(F)(F)F)nc2)n1Cc1ccc(Cl)cc1` [Compound 460]: less than 50 nM; for `Cc1cc(C)c(C(=O)O)cc1NC(=O)N1CCC[C@@H]1c1nnc(C)n1Cc1ccc(Cl)cc1` [Compound 346]: 50 to 500 nM; for `O=C(NC1CCCOc2cc(Cl)ccc21)N1CCC[C@@H]1c1ncnn1Cc1ccc(Cl)cc1` (stereo partly drawn) [Compound 88]: 500 to 5000 nM.
In the case of `Cc1nnc([C@H]2CCCN2C(=O)Nc2c(F)cc(Cl)cc2F)n1Cc1ccc(Cl)cc1` [Compound 429], the IC50 is less than 50 nM.
With `Cc1nc(-c2ccccc2)sc1NC(=O)N1CCC[C@@H]1c1ncnn1Cc1ccc(Cl)cc1` [Compound 83], the IC50 was in the range of 50 to 500 nM.
Take `Cc1noc(C)c1CC(=O)N1CCC[C@@H]1c1ncnn1Cc1ccc(Cl)cc1` [Compound 631]: the IC50 is 500 to 5000 nM.
Regarding `Cc1nnc([C@H]2CCCN2C(=O)NC2CC(C)(C)Oc3cc(C(F)(F)F)ccc32)n1Cc1ccc(Cl)cc1` (stereo partly drawn) [Compound 272], the IC50 lay within 50 to 500 nM.
Regarding `Cc1nnc([C@H]2CCCN2C(=O)Nc2ccc(Cl)c(Cl)c2)n1Cc1ccc(Cl)cc1` [Compound 424], the IC50 was 50 to 500 nM.
Consider `Cc1nnc([C@H]2CCCN2c2c(Nc3ccc(Cl)cc3F)c(=O)c2=O)n1Cc1ccc(Cl)cc1` [Compound 536], for which the IC50 was 500 to 5000 nM.
In the case of `CC(=O)N1CCC[C@H](NC(=O)N2CCC[C@@H]2c2nnc(C)n2Cc2ccc(Cl)cc2)C1` [Compound 232] it was 50 to 500 nM.
In the case of `Cc1nnc([C@H]2C[C@@H](O)CN2C(=O)NC2CCOc3cc(C#N)ccc32)n1Cc1ccc(Cl)cc1` (stereo partly drawn) [Compound 444], the IC50 fell in the range of 50 to 500 nM.
For `Cc1cc(Cl)cc(C)c1NC(=O)N1CCC[C@@H]1c1ncncc1Cc1ccc(Cl)cc1` [Compound 13], the IC50 is less than 50 nM.
The same measure for `Cc1nc(C(F)(F)F)ccc1N/C(=N\O)N1CCC[C@@H]1c1nnc(C)n1Cc1ccc(Cl)cc1` [Compound 605]: 50 to 500 nM; for `Cc1nnc([C@H]2CCCN2C(=O)Oc2ccc(F)cc2)n1Cc1ccc(Cl)cc1` [Compound 176]: 500 to 5000 nM; for `O=C(Nc1ccc(OC(F)(F)F)cc1)N1CCC[C@@H]1c1nccn1Cc1ccc(Cl)cc1` [Compound 39]: 50 to 500 nM.
On to `Cc1cc(C(F)(F)F)ccc1NC(=O)N1CCC[C@@H]1c1nncn1Cc1ccc(Cl)cc1` [Compound 104], for which the IC50 was less than 50 nM.
As to `CC(=O)N1CCC(CNC(=O)N2CCC[C@@H]2c2nnc(C)n2Cc2ccc(Cl)cc2)CC1` [Compound 598], the IC50 lay within 50 to 500 nM.
Consider `Cc1cc(C)c(S(=O)(=O)N(C)C)cc1NC(=O)N1CCC[C@@H]1c1nnc(C)n1Cc1ccc(F)cc1` [Compound 587], for which the IC50 is less than 50 nM.
Consider `COC(=O)c1ccc(NC(=O)N2CCC[C@@H]2c2nnc(C)n2Cc2ccc(Cl)cc2)c(C)c1` [Compound 215], for which the IC50 was less than 50 nM.
The same measure for `O=C(Nc1ccc(C(F)(F)F)cc1)N1CCC[C@@H]1c1ncnn1Cc1ccc(Cl)cc1` [Compound 64]: less than 50 nM; for `Cc1nnc([C@H]2CCCN2C(=O)Nc2cc(C(=O)N(C)C)ccc2F)n1Cc1ccc(Cl)cc1` [Compound 302]: 50 to 500 nM; for `Cc1nnc([C@H]2C[C@@H](O)CN2C(=O)Nc2ccc(Cl)c(C(F)(F)F)c2)n1Cc1ccc(Cl)cc1` [Compound 446]: 50 to 500 nM.
As for `Cc1nnc([C@H]2CCCN2C(=O)NCC2CCCN(S(C)(=O)=O)C2)n1Cc1ccc(Cl)cc1` (stereo partly drawn) [Compound 601], the IC50 fell in the range of 50 to 500 nM.
On to `Cc1nnc([C@H]2CCCN2C(=O)NC2(c3ccc(Cl)cc3)CC2)n1Cc1ccc(Cl)cc1` [Compound 271], for which the half-inhibitory concentration (IC50) is less than 50 nM.
`Cc1nnc([C@H]2CCCN2C(=O)Nc2cccc(-c3ccn(C)n3)c2)n1Cc1ccc(Cl)cc1` [Compound 621]: the IC50 lay within 50 to 500 nM.
On to `Cc1nnc([C@H]2CCCN2/C(=N/C#N)NCc2ccc(Cl)cc2Cl)n1Cc1ccc(Cl)cc1` [Compound 420], for which the IC50 fell in the range of 50 to 500 nM.
In the case of `NC(=O)c1nnc([C@H]2CCCN2C(=O)N[C@H]2CCOc3cc(C(F)(F)F)ccc32)n1Cc1ccc(Cl)cc1` [Compound 489] it was 500 to 5000 nM; in that of `Cc1onc(C(F)(F)F)c1NC(=O)N1CCC[C@@H]1c1nnc(C)n1Cc1ccc(Cl)cc1` [Compound 615], less than 50 nM.
`Cc1nc(NC(=O)N2CCC[C@@H]2c2nnc(C)n2Cc2ccc(Cl)cc2)sc1C` [Compound 596]: the IC50 was in the range of 500 to 5000 nM.
In the case of `CC[C@H](NC(=O)N1CCC[C@@H]1c1nncn1Cc1ccc(Cl)cc1)c1c(C)cc(C(F)(F)F)cc1C` [Compound 120] it was less than 50 nM.
